Patent publication US10709714B2 (CL BioSciences LLC, priority 2013, dated 2020)
Marks after values point to notes of the source that are not given here.

What was measured:
[1] = system: ovariectomized CD rats; assay: MicroCT of trabecular and cortical bone, Model 2 rat OVX
Description: Microcomputed tomography (MicroCT) and bone bending as well as osmium uptake and PCR were used to evaluate bone dynamics and osteoporotic features in the different animal models. MicroCT assesses density and volume of both the trabecular and cortical bones. Measurements of the radius and circumference of the cortical bone can be undertaken. Calculations of the connectivity density, the structural model index (SMI) as well as the stiffness (all measures of structure) of the bone can be made. The polar moment of inertia (pMOI) as well as fracture and workloads identify the underlying bone strength.
Both mice and rats were exposed to the PPI, omeprazole, while the Mastomys were exposed to the H2 Receptor antagonist, loxitidine. GA administration was a single subcutaneous injection at the start of acid inhibition. Pharmacokinetically, this dose ranges between 15-20 nmol over an 8 week period.
Three groups were included for each animal model: a) Group A=placebo/saline treated (no OVX/Controls); b) Group B=OVX+Acid Inhibitory therapy (OVX); and c) Group C=GA treated ovariectomized animals (OVX+GA). At the termination of study (2 months), we evaluated whether the GA reversed the OVX-mediated alterations in bone parameters (microCT, bone strength and histomorphometry as well as circulating markers).
At the start of GA treatment, animals were 98 days (3.2 months) and at study termination, they were 163 days (5.4 months).

[2] = system: ovariectomized CD-1 mice; assay: MicroCT of trabecular and cortical bone, Model 1 mouse OVX; format: in vivo
[3] = system: ovariectomized Mastomys; assay: Bone strength (Instron), Model 3 Mastomys OVX; format: in vivo
Procedure: Finally, bone strength was examined in Mastomys using an Instron device. Femurs were loaded to failure in four-point bending. Tests were conducted with a deflection rate of 0.05 mm/sec using a servohydraulic testing machine (Instron model 8874; Instron Corp., Norwood, Mass., USA). […] Measurements of bone strength using the Instron device confirmed the utility of the gastrin-antagonist in reversing the OVX-mediated bone phenotype.

[4] = system: ovariectomized CD rats; assay: Bone strength (Instron), Model 2 rat OVX; format: in vivo
[5] = system: ovariectomized CD-1 mice; assay: Circulating blood markers, Model 1 mouse OVX; format: in vivo
Procedure: Ovariectomy increased all three bone markers, PINP, CTX1 and osteocalcin. […] CON=control animals, OVX=ovariectomized animals, OVX+GA=gastrin antagonist treated ovariectomized animals. Mean±SEM. *p<0.05 vs. CON, **p<0.05 vs. OVX alone.
Circulating bone biomarkers were also altered by OVX. Specifically, PINP was increased (0.19±0.01 ng/ml vs. 0.1y±0.006, p<0.05) as was CTx-1 (0.60±0.14 ng/ml vs. 0.29±0.13, p<0.05) and osteocalcin was elevated (6.7±2.3 ng/ml vs. 4.1±1.2, p<0.05). Treatment with the antagonist attenuated each of these three ovariectomy-mediated alterations.

[6] = system: ovariectomized Mastomys; assay: Circulating blood markers, Model 3 Mastomys OVX; format: in vivo
Procedure: CON=control animals, OVX=ovariectomized animals, OVX+GA=gastrin antagonist treated ovariectomized animals. Mean±SEM. *p<0.05 vs. CON, **p<0.05 vs. OVX alone.
Circulating bone biomarkers were also altered by OVX. Specifically, PINP was increased (0.16±0.03 ng/ml vs. 0.13±0.01, p<0.05) as was CTx-1 (0.24±0.17 ng/ml vs. 0.03±0.03, p<0.05) while osteocalcin was elevated (1.6±1.1 ng/ml vs. 0.4±0.16, p<0.05). Treatment with the antagonist attenuated each of these three ovariectomy-mediated alterations.

[7] = OVX CD rats + omeprazole, GA 50 ug/animal single s.c., 8 weeks, cortical bone
[8] = OVX CD rats + omeprazole, GA 50 ug/animal single s.c., 8 weeks, trabecular bone
[9] = OVX CD rats + omeprazole, GA 50 ug/animal single s.c., 8 weeks, trabecular bone, listed as GA
[10] = OVX CD rats + omeprazole, GA 50 ug/animal single s.c., 8 weeks, trabecular bone, listed as Gastrin antagonist
[11] = OVX CD rats, GA-treated vs control, cortical bone
[12] = OVX CD rats, GA-treated vs control, trabecular bone
[13] = OVX CD-1 mice + omeprazole, GA 15 ug/animal single s.c., 8 weeks, cortical bone
[14] = OVX CD-1 mice + omeprazole, GA 15 ug/animal single s.c., 8 weeks, trabecular bone
[15] = OVX CD-1 mice, GA-treated vs control, cortical bone
[16] = OVX CD-1 mice, GA-treated vs control, trabecular bone
[17] = OVX Mastomys + loxitidine, GA 10 ug/animal single s.c., 8 weeks
[18] = OVX Mastomys, GA-treated vs control
[19] = OVX CD rats + omeprazole, GA 50 ug/animal single s.c., 8 weeks
[20] = OVX CD rats, GA-treated vs control
[21] = OVX CD-1 mice + omeprazole, GA 15 ug/animal single s.c., 8 weeks
[22] = OVX CD-1 mice, GA-treated vs control
[23] = OVX Mastomys + loxitidine, GA 10 ug/animal single s.c., 8 weeks, listed as GA
[24] = OVX Mastomys + loxitidine, GA 10 ug/animal single s.c., 8 weeks, listed as antagonist

CNc1cccc(NC(=O)N[C@@H]2N=C(c3ccccn3)c3ccccc3N(CC(=O)C(C)(C)C)C2=O)c1 [YF476, netazepide]
BS [1, 7]: 43.3
BV/TV [1, 7]: 0.965
Ct. Th [1, 7]: 0.68
pMOI [1, 7]: 14.03
Dens (Apparent Density, cortical) ([1]; OVX CD rats + omeprazole, GA 50 ug/animal single s.c., 8 weeks, cortical bone, listed as GA): 1098
Dens (Apparent Density, cortical) ([1]; OVX CD rats + omeprazole, GA 50 ug/animal single s.c., 8 weeks, cortical bone, listed as Gastrin-antagonist): 1098±24
BS [1, 8]: 154
BV/TV [1, 8]: 0.189
Conns-Dens [1, 8]: 68.58
Tb. N [1, 8]: 2.17
Tb. Sp [1, 8]: 0.48
Tb. Th [1, 8]: 0.09
Dens (Apparent Density, trabecular) [1, 9]: 200.5
SMI [1, 9]: 1.33
Dens (Apparent Density, trabecular) [1, 10]: 204±27
SMI [1, 10]: 1.3±0.17
% Change BS [1, 11]: −13%*
% Change BV/TV [1, 11]: 0%**
% Change Ct. Th [1, 11]: +12%*
% Change Dens (Apparent Density, cortical) [1, 11]: −4%*^,**
% Change pMOI [1, 11]: −22%*
% Change BS [1, 12]: −21%
% Change BV/TV [1, 12]: −30%**
% Change Conns-Dens [1, 12]: +8%
% Change Dens (Apparent Density, trabecular) [1, 12]: −30%*^, **
% Change SMI [1, 12]: +143%*
% Change Tb. N [1, 12]: −18%**
% Change Tb. Sp [1, 12]: +9%**
% Change Tb. Th [1, 12]: −13%**
BS [2, 13]: 11.3
BV/TV [2, 13]: 0.93
Ct. Th [2, 13]: 0.21
pMOI [2, 13]: 0.35
Dens (Apparent Density, cortical) ([2]; OVX CD-1 mice + omeprazole, GA 15 ug/animal single s.c., 8 weeks, cortical bone, listed as GA): 1025
Dens (Apparent Density, cortical) ([2]; OVX CD-1 mice + omeprazole, GA 15 ug/animal single s.c., 8 weeks, cortical bone, listed as Gastrin-antagonist): 1025±37
BS [2, 14]: 16.8
BV/TV [2, 14]: 0.123
Conns-Dens [2, 14]: 128.6
SMI [2, 14]: 1.38
Tb. N [2, 14]: 2.43
Tb. Sp [2, 14]: 0.528
Tb. Th [2, 14]: 0.051
Dens (Apparent Density, trabecular) ([2]; OVX CD-1 mice + omeprazole, GA 15 ug/animal single s.c., 8 weeks, trabecular bone, listed as GA): 70.7
Dens (Apparent Density, trabecular) ([2]; OVX CD-1 mice + omeprazole, GA 15 ug/animal single s.c., 8 weeks, trabecular bone, listed as Gastrin antagonist): 70.7±19
% Change BS [2, 15]: −15%*
% Change BV/TV [2, 15]: 2%*
% Change Ct. Th [2, 15]: +39%*^,**
% Change Dens (Apparent Density, cortical) [2, 15]: −11%*^,**
% Change pMOI [2, 15]: −11%
% Change BS [2, 16]: −32%*^, **
% Change BV/TV [2, 16]: −33%*^, **
% Change Conns-Dens [2, 16]: −62%*^, **
% Change Dens (Apparent Density, trabecular) [2, 16]: −60%*^, **
% Change SMI [2, 16]: +20%**
% Change Tb. N [2, 16]: −30%*^, **
% Change Tb. Sp [2, 16]: +82%*
% Change Tb. Th [2, 16]: +28%*
Fracture Load [3, 17]: 42.1
Max Load [3, 17]: 42.2
Stiffness [3, 17]: 311
Total Work [3, 17]: 14.8
Yield (Stiffness) [3, 17]: 280
% Change Fracture Load [3, 18]: −25%
% Change Max Load [3, 18]: −25%
% Change Stiffness [3, 18]: −6%**
% Change Total Work [3, 18]: 55%*^,**
% Change Yield (Stiffness) [3, 18]: −6%**
Fracture Load [4, 19]: 276
Max Load [4, 19]: 282
Stiffness [4, 19]: 565
Total Work [4, 19]: 276
Yield (Stiffness) [4, 19]: 508
% Change Fracture Load [4, 20]: −8%
% Change Max Load [4, 20]: 0%
% Change Stiffness [4, 20]: −2%**
% Change Total Work [4, 20]: 0%
% Change Yield (Stiffness) [4, 20]: −2%**
CTX-1 [5, 21]: 053 ng/mL
ESR (circulating estrogen) [5, 21]: 1.47 pg/mL
Gastrin (circulating) [5, 21]: 2971 pg/mL
Osteocalcin [5, 21]: 5.3 ng/mL
PINP [5, 21]: 0.169 ng/mL
PTH (circulating) [5, 21]: 92.1 pg/mL
% Change CTX-1 [5, 22]: −9%**
% Change ESR [5, 22]: −71%*
% Change Gastrin [5, 22]: +22%
% Change Osteocalcin [5, 22]: +30%**
% Change PINP [5, 22]: 0%**
% Change PTH [5, 22]: +79%*
CTX-1 [6, 17]: 0.1 ng/mL
ESR (circulating estrogen) [6, 17]: 2.54 pg/mL
Osteocalcin [6, 17]: 1.13 ng/mL
PINP [6, 17]: 0.13 ng/mL
Gastrin (circulating) [6, 23]: 2703 pg/mL
PTH (circulating) [6, 23]: 151 pg/mL
Gastrin (circulating) [6, 24]: 2704 ± 430 pg/mL
PTH (circulating) [6, 24]: 150 ± 37 pg/mL
% Change CTX-1 [6, 18]: +230%
% Change ESR [6, 18]: −70%*
% Change Gastrin [6, 18]: −27%**
% Change Osteocalcin [6, 18]: +13%
% Change PINP [6, 18]: 0%*^, **
% Change PTH [6, 18]: −48%*^, **
